Data set [1] deals with T1, Mab TrmD (Mycobacteroides abscessus, UniProt B1MDI3). Nature of the data set: Native mass spectrometry of ligand binding. Conditions: 20 μM Mab TrmD, 100 μM ligand, 5% DMSO. As for the experimental part: Native nanoelectrospray ionization mass spectrometry spectra were recorded on a Synapt HDMS mass spectrometer (Waters, Manchester, UK) modified for studying high masses. Mab TrmD was exchanged into 200 mM ammonium acetate (pH 7.0) solution using Micro Bio-Spin 6 chromatography columns (Bio-Rad, UK). Protein samples were equilibrated at room temperature in the absence or presence of the indicated concentrations of ligands for at least 15 min before analysis. Protein solution (2.5 μL) was injected into a gold-coated borosilicate emitter (Thermo Scientific, UK) for sampling. Typical conditions were capillary voltage 1.5 kV, cone voltage 50 V, trap collision voltage 20 V, transfer collision voltage 20 V, source temperature 20 °C, backing pressure 3–4 mbar, trap pressure 3–4 × 10^–2 mbar, IM (N2) pressure 5–6 × 10^–1 mbar and TOF pressure 7–8 × 10^–7 mbar. All mass spectra were calibrated externally with caesium iodide (10 mg/mL). Data acquisition and processing were performed using MassLynx 4.1 (Waters).

For data set [2], the target named is T1, Mab TrmD. As to the kind of experiment: Isothermal titration calorimetry (ITC). Format: binding. Particulars: for LE: ligand efficiency. On the technique in general: ITC needs no label: the signal is the heat of the interaction.
The target of data set [3] is T1, Mab TrmD. Conditions: ligand efficiency, previously reported, cited from earlier work.
Data set [4] deals with the molecule itself. Nature of the data set: native MS; nanoelectrospray, Mab TrmD exchanged into 200 mM ammonium acetate pH 7.0, room temperature, protein alone (dimer also seen with 5% DMSO and with ligands).

Read-outs that look alike come from different tables or passages of the source.

Consider `Nc1cc(-c2ccc3ccn(Cc4ccccc4)c3c2)[nH]n1` [Compound 24c, 5-(1-Benzyl-1H-indol-6-yl)-1H-pyrazol-3-amine], for which the “binding to Mab TrmD dimer observed by native MS” value at Mab TrmD [1] is on record as “entirely doubly bound”. The “GE (R^1)” value on Mab TrmD [2] (Table 4, group efficiency of R^1) is given as 0.15 kcal mol^–1 per heavy atom. Moreover, the LE on Mab TrmD [2] (Table 4) and on Mab TrmD [2] was 0.29 kcal mol^–1 per heavy atom each time. For the same molecule, the GE at Mab TrmD [2] (group efficiency of the added group) is 0.15 kcal mol^–1 per heavy atom.

As to `N#Cc1c(N)n[nH]c1-c1ccc2ccn(Cc3ccc(CN4CCCC4)cc3)c2c1` [Compound 29a, 3-Amino-5-(1-(4-(pyrrolidin-1-ylmethyl)benzyl)-1H-indol-6-yl)-1H-pyrazole-4-carbonitrile], the LE at Mab TrmD [3] (Table 6) and on Mab TrmD [3] was 0.34 kcal mol^–1 per heavy atom in each case. Moreover, the “binding to Mab TrmD dimer observed by native MS” value at Mab TrmD [1] is on record as “low gas-phase stabilities”.

B1: Mycobacterium abscessus tRNA (m1G37) methyltransferase (TrmD) (enzyme, UniProt B1MDI3 1-242, looked up)
chain: MKIDVVTIFPEYLQPVRQSLPGKAIDAGLVDVAVHDLRRWTHDVHKSVDDSPYGGGPGMVMKPTVWGDALDEICTSETLLVVPTPAGYPFTQETAWQWSTEDHLVIACGRYEGIDQRVADDAATRMRVREVSIGDYVLNGGEAAALVIIEAVLRLVPGVLGNALSAQEDSHSEGMASLLEGPSYTRPPSWRGMDVPPVLLSGDHAKIAAWRAEQSRQRTIERRPDLLGFDSPTGEHGGDGLS
As to B1, in data set [4], the “stoichiometry N” value was 2.

Usually stoichiometry N stands for a count of units in the complex or per binding partner.

The values are drawn from PMC6691401 (Journal of Medicinal Chemistry, 2019).
